Laboratory results taken from patent US11612612B2, “Pharmaceutical compositions” (CIPLA LIMITED, priority 2016, dated 2023).
Where a name gives a salt, the structure may show the parent alone.

Key:
[1] = Caco-2 bidirectional assay, effect of piperine on permeability of darunavir; assay type: in vitro ADME; details: human, Caco-2, pH 7.4
Experimental: (§1) Cells were treated with drugs as follows:
(§2) The sample were analyzed on LCMS-MS.

[2] = Caco-2 bidirectional assay, effect of piperine on permeability of dolutegravir; details: human, Caco-2, pH 7.4
Experimental: as §1
(§3) The samples were analyzed on LCMS-MS.

in vitro = details: human, Caco-2, pH 7.4
Experimental: Caco-2 cells were cultured in MEM media with 10% serum and seeded at a density of 75000 cells per mL and cultured for 21 days in a 24-well trans-well plate at 37° C., 5% CO2. The monolayer integrity was checked intermittently (Day 0-21) using Trans Epithelial Electric Resistance (TEER).
(§5) 400 μL samples were added to the wells as per the plate setup to the apical side in duplicates with 800 μL HBSS pH 7.4 in the basal wells. Samples were collected at 60, 90 and 120 minutes from the basal side. Mass balance samples at 0 and 120 minutes were collected from the apical side.
For B-A, 800 μL of the respective dilutions were added to the basal side in duplicates with 400 μL HBSS pH 7.4 in the apical wells. Samples were collected at 60, 90 and 120 minutes from the apical side. Mass balance samples at 0 and 120 minutes were collected from the basal side. The sample were analyzed on LCMS-MS.
At the end of the experiment the monolayer integrity was checked using Lucifer yellow, and calculating the % rejection of Lucifer yellow by incubating cells with 100 μg/mL Lucifer.
(§6) For Lucifer yellow, % Lucifer Yellow Passage=[RFU (test)−RFU (blank)/RFU (equilibrium)−RFU (blank)]*100

[3] = Caco-2 bidirectional assay, effect of piperine and tetrahydropiperine on permeability of TDF; details: human, Caco-2, pH 7.4
Experimental: Caco-2 cells were cultured in MEM media with 10% serum and seeded at a density of 75000 cells per mL and cultured for 21 days in a 24-well trans-well plate at 37° C., 5% CO2. The monolayer integrity was checked intermittently (Day 0-21) using Trans Epithelial Electric Resistance (TEER). Cells were treated with drugs as follows:
as §5
For B-A, 800 μL of the respective dilutions were added to the basal side in duplicates with 400 μL HBSS pH 7.4 in the apical wells. Samples were collected at 60, 90 and 120 minutes from the apical side. Mass balance samples at 0 and 120 minutes were collected from the basal side.
The sample were analyzed on LCMS-MS. At the end of the experiment the monolayer integrity was checked using and Lucifer yellow, calculating the % rejection of Lucifer yellow by incubating cells with 100 μg/mL Lucifer.
as §6

Caco-2 cells [4] = assay: Caco-2 bidirectional assay, effect of piperine on permeability of dolutegravir; details: in words
Experimental: as §1, §3

[5] = Caco-2 unidirectional assay (A-B), permeability; details: human, Caco-2
Experimental: as §1
(§4) Stock preparations: 10 mM stocks of all the drugs were prepared in DMSO. The test concentrations were further prepared in HBSS buffer containing 10 mM MES hydrate pH 6.8 as per the plate plan. Also, HBSS buffer with 10 mM HEPES with pH 7.4 was prepared.
as §2

Caco-2 cells [6] = assay: Caco-2 unidirectional assay (A-B), permeability
Experimental: as §1, §4, §2

P-gp = P-gp (Homo sapiens, UniProt P08183); assay: in vitro; assay type: cell-based; details: pH 7.4, drug alone (Digoxine 10 μM; TAF 100 μM)
Chain of P-gp (P08183 whole entry): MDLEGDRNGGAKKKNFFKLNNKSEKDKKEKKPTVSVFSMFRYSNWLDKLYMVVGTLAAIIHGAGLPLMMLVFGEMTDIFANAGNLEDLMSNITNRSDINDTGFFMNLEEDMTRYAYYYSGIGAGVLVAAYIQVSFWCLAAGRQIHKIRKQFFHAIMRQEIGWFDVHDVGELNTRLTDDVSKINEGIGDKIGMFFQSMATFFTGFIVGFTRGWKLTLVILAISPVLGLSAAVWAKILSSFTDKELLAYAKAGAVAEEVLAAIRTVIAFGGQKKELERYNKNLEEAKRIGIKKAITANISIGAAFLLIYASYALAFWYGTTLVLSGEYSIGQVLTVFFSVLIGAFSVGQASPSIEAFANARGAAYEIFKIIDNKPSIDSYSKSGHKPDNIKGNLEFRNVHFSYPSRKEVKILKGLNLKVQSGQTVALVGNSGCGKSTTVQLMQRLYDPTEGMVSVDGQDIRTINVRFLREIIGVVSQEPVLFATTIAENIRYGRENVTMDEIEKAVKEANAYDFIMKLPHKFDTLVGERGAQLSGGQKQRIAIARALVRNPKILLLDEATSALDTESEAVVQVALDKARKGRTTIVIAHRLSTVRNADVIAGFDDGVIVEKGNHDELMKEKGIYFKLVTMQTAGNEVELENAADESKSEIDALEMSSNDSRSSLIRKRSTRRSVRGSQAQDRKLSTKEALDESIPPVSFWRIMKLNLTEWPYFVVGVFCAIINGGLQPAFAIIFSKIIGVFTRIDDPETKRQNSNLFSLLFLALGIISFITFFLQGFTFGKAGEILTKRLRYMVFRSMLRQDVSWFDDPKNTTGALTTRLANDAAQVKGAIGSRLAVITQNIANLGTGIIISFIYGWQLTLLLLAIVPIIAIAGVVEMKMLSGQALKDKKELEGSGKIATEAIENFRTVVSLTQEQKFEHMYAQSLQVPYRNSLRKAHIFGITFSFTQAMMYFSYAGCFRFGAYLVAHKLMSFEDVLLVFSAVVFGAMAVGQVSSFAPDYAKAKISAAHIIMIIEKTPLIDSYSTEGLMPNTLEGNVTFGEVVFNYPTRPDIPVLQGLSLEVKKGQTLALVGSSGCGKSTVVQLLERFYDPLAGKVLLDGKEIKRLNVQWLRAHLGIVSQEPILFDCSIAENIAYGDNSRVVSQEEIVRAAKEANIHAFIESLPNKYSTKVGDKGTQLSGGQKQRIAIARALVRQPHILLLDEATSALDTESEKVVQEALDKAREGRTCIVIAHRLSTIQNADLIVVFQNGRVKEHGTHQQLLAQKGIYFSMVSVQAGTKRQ
Experimental: as §1, §2

[7] = male, Wistar, rat, in vivo, 300 mg
Experimental: The objective of this non-GLP study was to determine the pharmacokinetics of the TDF alone and in combinations with piperine in different groups of male Wistar rats after single dose intravenous administration and oral administration. This study was performed with approval from the Institutional Animal Ethics Committee (IAEC) in accordance with the requirement of Committee for the Purpose of Control and Supervision of Experiments on Animals (CPCSEA), India.
An equal volume (4.72 mL) of each formulation was mixed in separate vials to get 5 mL/kg.
An equal volume (5.61 mL) of each formulation was mixed in separate vials to get 5 mL/kg.
Bioanalysis was performed using fit-for-purpose LC-MS/MS method for the quantification of TDF and PMPA in rat plasma samples. […]
Plasma pharmacokinetic parameters were calculated using the non-compartmental analysis tool of Phoenix software (Version 6.3) and were determined from individual animals in each group. The peak plasma concentration (Cmax), time to achieve peak plasma concentration (Tmax), the area under the plasma concentration-time curve (AUC0-t and AUCinf), AUC Extra (%), elimination half-life (T½), clearance (CL), volume of distribution Vd (L/kg) and Mean residence time (MRT) were calculated from the intravenous group. […]

| Compound | Papp A→B at 120 min [1] | Papp B→A at 120 min [1] | Papp A→B at 120 min [2] | Papp B→A at 120 min [2] | Papp A→B at 120 min [3] | Papp B→A at 120 min [3] | Papp A→B at 120 min, 50 μM [5] | Papp A→B at 120 min, 100 μM [5] | other results |
| --- | --- | --- | --- | --- | --- | --- | --- | --- | --- |
| CC(C)CN(C[C@@H](O)[C@H](Cc1ccccc1)NC(=O)O[C@H]1CO[C@H]2OCC[C@H]21)S(=O)(=O)c1ccc(N)cc1 [Darunavir] | 8.83 ×10⁻⁶ cm/s | 21.7 ×10⁻⁶ cm/s | – | – | – | – | – | – | – |
| C[C@H]1O[C@@H](O[C@H]2[C@@H](O)C[C@H](O[C@H]3[C@@H](O)C[C@H](O[C@H]4CC[C@@]5(C)[C@H](CC[C@@H]6[C@@H]5C[C@@H](O)[C@]5(C)[C@@H](C7=CC(=O)OC7)CC[C@]65O)C4)O[C@@H]3C)O[C@@H]2C)C[C@H](O)[C@@H]1O [Digoxin] | 1.12 ×10⁻⁶ cm/s | 14.2 ×10⁻⁶ cm/s | 4.5 ×10⁻⁶ cm/s | 28.9 ×10⁻⁶ cm/s | 0.816 ×10⁻⁶ cm/s | 15.5 ×10⁻⁶ cm/s | – | – | Papp A→B (in vitro): 1.94 ×10⁻⁶ cm/s; Papp B→A (in vitro): 20.5 ×10⁻⁶ cm/s |
| C[C@@H]1CCO[C@H]2Cn3cc(C(=O)NCc4ccc(F)cc4F)c(=O)c(O)c3C(=O)N12 [Dolutegravir] | – | – | 40.2 ×10⁻⁶ cm/s | 84.3 ×10⁻⁶ cm/s | – | – | – | – | Permeability classification (Caco-2 cells [4]): high permeable |
| CC(C)OC(=O)[C@H](C)N[P@](=O)(CO[C@H](C)Cn1cnc2c(N)ncnc21)Oc1ccccc1 [TAF, tenofovir alafenamide fumarate] | – | – | – | – | – | – | 5.86 ×10⁻⁶ cm/s | 5.39 ×10⁻⁶ cm/s | Permeability classification (Caco-2 cells [6]; in words): low to moderately permeable; inhibition at 120 min, 100 μM (P-gp): 0%; Papp A→B at 120 min (in vitro): 3.45 ×10⁻⁶ cm/s; Papp B→A at 120 min (in vitro): 17.8 ×10⁻⁶ cm/s |
| CC(C)OC(=O)OCOP(=O)(CO[C@H](C)Cn1cnc2c(N)ncnc21)OCOC(=O)OC(C)C [TDF, tenofovir disoproxil fumarate] | – | – | – | – | 2.55 ×10⁻⁶ cm/s | 15.2 ×10⁻⁶ cm/s | 6.58 ×10⁻⁶ cm/s | 6.35 ×10⁻⁶ cm/s | Permeability classification (Caco-2 cells [6]; Caco-2): low to moderately permeable; Bioavailability [7]: 34.39±6.07; Papp A→B at 120 min, 200 μM [3]: 3.77 ×10⁻⁶ cm/s; Papp B→A at 120 min, 200 μM [3]: 14.3 ×10⁻⁶ cm/s; efflux ratio at 120 min, 200 μM [3]: 3.79 |
